Like-named read-outs stand apart in the source and are kept apart here.
Legend:
Format in all cases: cell-based
[1] = system: Staphylococcus aureus ATTC 6538; test: Antimicrobial disk susceptibility test (CLSI M2-A9), S. aureus
Procedure: (§1) Test for the antimicrobial activity of the novel compounds may be performed according to the standards of Clinical and Laboratory Standards Institute, Performance Standards for Antimicrobial Disk Susceptibility Tests; approved Standard; M2-A), vol. 26 NO. 1 9th ed.
as §1, with “A test for” for “Test for”, “compounds were” for “compounds may be”, “ed. The samples were dissolved in 10 ml of sterile Milli-Q water by magnetic stirring overnight at 20° C.” for “ed.”
(§2) Two doses of the samples were tested in duplicate, a) and b). The size of the inhibition zones were measured in mm after incubation.

[2] = system: Escherichia coli ATCC 8739; test: Antimicrobial disk susceptibility test (CLSI M2-A9), E. coli
Procedure: as §1
as §1, with “A test for” for “Test for”, “compounds were” for “compounds may be”, “ed. The samples were dissolved in 10 ml of sterile Milli-Q water by magnetic stirring overnight at 20° C.” for “ed.”
as §2

[3] = system: Pseudomonas aeruginosa ATCC 9027; test: Antimicrobial disk susceptibility test (CLSI M2-A9), P. aeruginosa
Procedure: as §1
as §1, with “A test for” for “Test for”, “compounds were” for “compounds may be”, “ed. The samples were dissolved in 10 ml of sterile Milli-Q water by magnetic stirring overnight at 20° C.” for “ed.”
as §2

[4] = system: Klebsiella pneumonia ATCC 35657; test: Antimicrobial disk susceptibility test (CLSI M2-A9), K. pneumonia
Procedure: as §1
as §1, with “A test for” for “Test for”, “compounds were” for “compounds may be”, “ed. The samples were dissolved in 10 ml of sterile Milli-Q water by magnetic stirring overnight at 20° C.” for “ed.”
as §2

[5] = Staphylococcus aureus, ATTC6538; 5 μg/disk, duplicate a); read-out: size of the inhibition zone, S. aureus a)
[6] = Staphylococcus aureus, ATTC6538; 5 μg/disk, duplicate b); read-out: size of the inhibition zone, S. aureus b)
[7] = Staphylococcus aureus, ATTC6538; 10 μg/disk, duplicate a); read-out: size of the inhibition zone, S. aureus a)
[8] = Staphylococcus aureus, ATTC6538; 10 μg/disk, duplicate b); read-out: size of the inhibition zone, S. aureus b)
[9] = Escherichia coli, ATCC8739; 5 μg/disk, duplicate a); read-out: size of the inhibition zone, E. coli a)
[10] = Escherichia coli, ATCC8739; 5 μg/disk, duplicate b); read-out: size of the inhibition zone, E. coli b)
[11] = Escherichia coli, ATCC8739; 10 μg/disk, duplicate a); read-out: size of the inhibition zone, E. coli a)
[12] = Escherichia coli, ATCC8739; 10 μg/disk, duplicate b); read-out: size of the inhibition zone, E. coli b)
[13] = Pseudomonas aeruginosa, ATCC9027; 5 μg/disk, duplicate a); read-out: size of the inhibition zone, P. aeruginosa a)
[14] = Pseudomonas aeruginosa, ATCC9027; 5 μg/disk, duplicate b); read-out: size of the inhibition zone, P. aeruginosa b)
[15] = Pseudomonas aeruginosa, ATCC9027; 10 μg/disk, duplicate a); read-out: size of the inhibition zone, P. aeruginosa a)
[16] = Pseudomonas aeruginosa, ATCC9027; 10 μg/disk, duplicate b); read-out: size of the inhibition zone, P. aeruginosa b)
[17] = Klebsiella pneumoniae, ATCC35657; 5 μg/disk, duplicate a); read-out: size of the inhibition zone, K. pneumonia a)
[18] = Klebsiella pneumoniae, ATCC35657; 5 μg/disk, duplicate b); read-out: size of the inhibition zone, K. pneumonia b)
[19] = Klebsiella pneumoniae, ATCC35657; 10 μg/disk, duplicate a); read-out: size of the inhibition zone, K. pneumonia a)
[20] = Klebsiella pneumoniae, ATCC35657; 10 μg/disk, duplicate b); read-out: size of the inhibition zone, K. pneumonia b)

CC[C@H]1OC(=O)[C@H](C)C(O[C@H]2C[C@@](C)(OC)[C@@H](O)[C@H](C)O2)[C@H](C)[C@@H](OC2O[C@H](C)C[C@H](N(C)C)[C@H]2C)[C@](C)(O)C[C@@H](C)CN(C)[C@H](C)[C@@H](O)[C@]1(C)O (stereo partly drawn) [PP001]
zone of inhibition at 5 µg/disc [1, 5]: < 1 mm
zone of inhibition at 5 µg/disc [1, 6]: < 1 mm
zone of inhibition at 10 µg/disc [1, 7]: < 1 mm
zone of inhibition at 10 µg/disc [1, 8]: < 1 mm
zone of inhibition at 5 µg/disc [2, 9]: < 1 mm
zone of inhibition at 5 µg/disc [2, 10]: < 1 mm
zone of inhibition at 10 µg/disc [2, 11]: < 1 mm
zone of inhibition at 10 µg/disc [2, 12]: < 1 mm
zone of inhibition at 5 µg/disc [3, 13]: < 1 mm
zone of inhibition at 5 µg/disc [3, 14]: < 1 mm
zone of inhibition at 10 µg/disc [3, 15]: < 1 mm
zone of inhibition at 10 µg/disc [3, 16]: < 1 mm
zone of inhibition at 5 µg/disc [4, 17]: < 1 mm
zone of inhibition at 5 µg/disc [4, 18]: < 1 mm
zone of inhibition at 10 µg/disc [4, 19]: < 1 mm
zone of inhibition at 10 µg/disc [4, 20]: < 1 mm

CCC1OC(=O)C(C)C(OC2CC(C)(OC)CC(C)O2)C(C)C(OC2OC(C)CC(N(C)C)C2C)C(C)(O)CC(C)CN(C)C(C)C(O)C1(C)O (stereo not drawn) [PP007]
size of the inhibition zone, S. aureus a) ([1]; 5 μg/disk, duplicate a)): <1 mm
size of the inhibition zone, S. aureus b) ([1]; 5 μg/disk, duplicate b)): <1 mm
size of the inhibition zone, S. aureus a) ([1]; 10 μg/disk, duplicate a)): <1 mm
size of the inhibition zone, S. aureus b) ([1]; 10 μg/disk, duplicate b)): <1 mm
size of the inhibition zone, E. coli a) ([2]; 5 μg/disk, duplicate a)): <1 mm
size of the inhibition zone, E. coli b) ([2]; 5 μg/disk, duplicate b)): <1 mm
size of the inhibition zone, E. coli a) ([2]; 10 μg/disk, duplicate a)): <1 mm
size of the inhibition zone, E. coli b) ([2]; 10 μg/disk, duplicate b)): <1 mm
size of the inhibition zone, P. aeruginosa a) ([3]; 5 μg/disk, duplicate a)): <1 mm
size of the inhibition zone, P. aeruginosa b) ([3]; 5 μg/disk, duplicate b)): <1 mm
size of the inhibition zone, P. aeruginosa a) ([3]; 10 μg/disk, duplicate a)): <1 mm
size of the inhibition zone, P. aeruginosa b) ([3]; 10 μg/disk, duplicate b)): <1 mm
size of the inhibition zone, K. pneumonia a) ([4]; 5 μg/disk, duplicate a)): <1 mm
size of the inhibition zone, K. pneumonia b) ([4]; 5 μg/disk, duplicate b)): <1 mm
size of the inhibition zone, K. pneumonia a) ([4]; 10 μg/disk, duplicate a)): <1 mm
size of the inhibition zone, K. pneumonia b) ([4]; 10 μg/disk, duplicate b)): <1 mm

CC[C@H]1OC(=O)[C@H](C)C(O[C@H]2C[C@@](C)(OC)C[C@H](C)O2)[C@H](C)[C@@H](OC2O[C@H](C)C[C@H](N(C)C)[C@H]2O)[C@](C)(O)C[C@@H](C)CN(C)[C@H](C)[C@@H](O)[C@]1(C)O (stereo partly drawn) [PP004]
zone of inhibition at 5 µg/disc [1, 5]: < 1 mm
zone of inhibition at 5 µg/disc [1, 6]: < 1 mm
zone of inhibition at 10 µg/disc [1, 7]: < 1 mm
zone of inhibition at 10 µg/disc [1, 8]: < 1 mm
zone of inhibition at 5 µg/disc [2, 9]: < 1 mm
zone of inhibition at 5 µg/disc [2, 10]: < 1 mm
zone of inhibition at 10 µg/disc [2, 11]: < 1 mm
zone of inhibition at 10 µg/disc [2, 12]: < 1 mm
zone of inhibition at 5 µg/disc [3, 13]: < 1 mm
zone of inhibition at 5 µg/disc [3, 14]: < 1 mm
zone of inhibition at 10 µg/disc [3, 15]: < 1 mm
zone of inhibition at 10 µg/disc [3, 16]: < 1 mm
zone of inhibition at 5 µg/disc [4, 17]: < 1 mm
zone of inhibition at 5 µg/disc [4, 18]: < 1 mm
zone of inhibition at 10 µg/disc [4, 19]: < 1 mm
zone of inhibition at 10 µg/disc [4, 20]: < 1 mm

CC[C@H]1OC(=O)[C@H](C)C(O[C@H]2C[C@@](C)(OC)[C@@H](O)[C@H](C)O2)[C@H](C)[C@@H](OC2C[C@@H](N(C)C)C[C@@H](C)O2)[C@](C)(O)C[C@@H](C)CN(C)[C@H](C)[C@@H](O)[C@]1(C)O (stereo partly drawn) [PP005]
zone of inhibition at 5 µg/disc [1, 5]: < 1 mm
zone of inhibition at 5 µg/disc [1, 6]: < 1 mm
zone of inhibition at 10 µg/disc [1, 7]: < 1 mm
zone of inhibition at 10 µg/disc [1, 8]: < 1 mm
zone of inhibition at 5 µg/disc [2, 9]: < 1 mm
zone of inhibition at 5 µg/disc [2, 10]: < 1 mm
zone of inhibition at 10 µg/disc [2, 11]: < 1 mm
zone of inhibition at 10 µg/disc [2, 12]: < 1 mm
zone of inhibition at 5 µg/disc [3, 13]: < 1 mm
zone of inhibition at 5 µg/disc [3, 14]: < 1 mm
zone of inhibition at 10 µg/disc [3, 15]: < 1 mm
zone of inhibition at 10 µg/disc [3, 16]: < 1 mm
zone of inhibition at 5 µg/disc [4, 17]: < 1 mm
zone of inhibition at 5 µg/disc [4, 18]: < 1 mm
zone of inhibition at 10 µg/disc [4, 19]: < 1 mm
zone of inhibition at 10 µg/disc [4, 20]: < 1 mm

CCC1OC(=O)C(C)C(OC2CC(C)(OC)C(C)C(C)O2)C(C)C(OC2OC(C)CC(N(C)C)C2C)C(C)(O)CC(C)CN(C)C(C)C(O)C1(C)O (stereo not drawn) [PP003]
size of the inhibition zone, S. aureus a) ([1]; 5 μg/disk, duplicate a)): <1 mm
size of the inhibition zone, S. aureus b) ([1]; 5 μg/disk, duplicate b)): <1 mm
size of the inhibition zone, S. aureus a) ([1]; 10 μg/disk, duplicate a)): <1 mm
size of the inhibition zone, S. aureus b) ([1]; 10 μg/disk, duplicate b)): <1 mm
size of the inhibition zone, E. coli a) ([2]; 5 μg/disk, duplicate a)): <1 mm
size of the inhibition zone, E. coli b) ([2]; 5 μg/disk, duplicate b)): <1 mm
size of the inhibition zone, E. coli a) ([2]; 10 μg/disk, duplicate a)): <1 mm
size of the inhibition zone, E. coli b) ([2]; 10 μg/disk, duplicate b)): <1 mm
size of the inhibition zone, P. aeruginosa a) ([3]; 5 μg/disk, duplicate a)): <1 mm
size of the inhibition zone, P. aeruginosa b) ([3]; 5 μg/disk, duplicate b)): <1 mm
size of the inhibition zone, P. aeruginosa a) ([3]; 10 μg/disk, duplicate a)): <1 mm
size of the inhibition zone, P. aeruginosa b) ([3]; 10 μg/disk, duplicate b)): <1 mm
size of the inhibition zone, K. pneumonia a) ([4]; 5 μg/disk, duplicate a)): <1 mm
size of the inhibition zone, K. pneumonia b) ([4]; 5 μg/disk, duplicate b)): <1 mm
size of the inhibition zone, K. pneumonia a) ([4]; 10 μg/disk, duplicate a)): <1 mm
size of the inhibition zone, K. pneumonia b) ([4]; 10 μg/disk, duplicate b)): <1 mm

CCC1OC(=O)C(C)C(OC2CC(C)(OC)CC(C)O2)C(C)C(OC2CC(N(C)C)CC(C)O2)C(C)(O)CC(C)CN(C)C(C)C(O)C1(C)O (stereo not drawn) [PP006]
size of the inhibition zone, S. aureus a) ([1]; 5 μg/disk, duplicate a)): <1 mm
size of the inhibition zone, S. aureus b) ([1]; 5 μg/disk, duplicate b)): <1 mm
size of the inhibition zone, S. aureus a) ([1]; 10 μg/disk, duplicate a)): <1 mm
size of the inhibition zone, S. aureus b) ([1]; 10 μg/disk, duplicate b)): <1 mm
size of the inhibition zone, E. coli a) ([2]; 5 μg/disk, duplicate a)): <1 mm
size of the inhibition zone, E. coli b) ([2]; 5 μg/disk, duplicate b)): <1 mm
size of the inhibition zone, E. coli a) ([2]; 10 μg/disk, duplicate a)): <1 mm
size of the inhibition zone, E. coli b) ([2]; 10 μg/disk, duplicate b)): <1 mm
size of the inhibition zone, P. aeruginosa a) ([3]; 5 μg/disk, duplicate a)): <1 mm
size of the inhibition zone, P. aeruginosa b) ([3]; 5 μg/disk, duplicate b)): <1 mm
size of the inhibition zone, P. aeruginosa a) ([3]; 10 μg/disk, duplicate a)): <1 mm
size of the inhibition zone, P. aeruginosa b) ([3]; 10 μg/disk, duplicate b)): <1 mm
size of the inhibition zone, K. pneumonia a) ([4]; 5 μg/disk, duplicate a)): <1 mm
size of the inhibition zone, K. pneumonia b) ([4]; 5 μg/disk, duplicate b)): <1 mm
size of the inhibition zone, K. pneumonia a) ([4]; 10 μg/disk, duplicate a)): <1 mm
size of the inhibition zone, K. pneumonia b) ([4]; 10 μg/disk, duplicate b)): <1 mm
